One experiment deals with Ba/F3 ERBB2 YVMA (Homo sapiens, UniProt P04626, DUP772-775, cells depend on it). Briefly: Cell viability assay (CellTiter Glo), Ba/F3 cells engineered to express ERBB2 YVMA. The note with it: Ba/F3 cells expressing human ERBB2 YVMA mutant, 72 hours, read-out: Ba/F3 ERBB2 YVMA, IC50. It is filed as cell-based, mouse. As for the experimental part:
Cells were treated with compounds, and cell viability was measured as a metric of kinase inhibition.
BT-474, A431, MDA-MB-175VII, NCI-H1781, MCF7, and Ba/F3 cell lines were tested. The Ba/F3 cell line is IL-3-dependent mouse cell line derived from the C3H mouse strain. Ba/F3 cell lines were engineered to express human ERBB2 or EGFR kinases, rendering the cells IL-3 independent. The lines were generated via retroviral transduction utilizing a Moloney murine leukemia virus (MMLV) promoter, and constructs are stably integrated into the cell genome. The sequences of the ERBB2 and EGFR genes used were NCBI Reference Sequences NM_004448.3 and NM_005228.3, respectively.
BT-474, A431, MDA-MB-175VII, NCI-H1781 and MCF7 cells were grown in the appropriate growth medium as described in Table B2 below, and harvested at 50-80% confluence. BT-474, A431, MDA-MB-175VII, NCI-H1781 and MCF7 cells were counted and seeded at 2,000 or 1,500 cells per well in 384-well tissue culture plates (see Table B2). Similarly, Ba/F3 cell lines engineered to express EGFR, ERBB2, or ERBB2 mutants were grown, harvested, counted and seeded at 3000 cells per well in 96-well plates. A subset of wells contained media only (low control, “LC”).
Table B1 provides the growth media and number of cells seeded per well for the each cell line.
Compounds were dissolved in DMSO and serially diluted. Serially-diluted compound or a DMSO only control (high control, “HC”) was added to the plated cells in each well. Compounds were tested at concentrations of about 10 μM to 0.51 nM, using three-fold dilutions. The final proportion of DMSO never exceeded 0.1%.
Plates were placed in a 37° C., 5% CO2 incubator for 72 hours. Plates were then removed from the incubator and equilibrated for 15 minutes at room temperature. 40 μl of CellTiter Glo reagent (Promega) was added to measure the relative level of metabolically active cells by quantifying intracellular ATP concentrations. Plates were incubated for 30 minutes at room temperature, and luminescence was measured. Percent viability was normalized to a vehicle control only using the following formula: % viability=100×(Lumsample−LumLC)/(LumHC−LumLC). Graphical curves were fitted using a nonlinear regression model with a sigmoidal dose response.
Background: In ATP-based viability assays light output follows the ATP content of the culture.

The target of experiment [1] is T1, phosphorylated EGFR (pEGFR) (Homo sapiens, UniProt P00533).
T1 construct: performed to measure phosphorylated EGFR levels using A431 cells (10% FBS); endogenous in cells; host or cells: A431
T1 sequence (P00533 25-1210): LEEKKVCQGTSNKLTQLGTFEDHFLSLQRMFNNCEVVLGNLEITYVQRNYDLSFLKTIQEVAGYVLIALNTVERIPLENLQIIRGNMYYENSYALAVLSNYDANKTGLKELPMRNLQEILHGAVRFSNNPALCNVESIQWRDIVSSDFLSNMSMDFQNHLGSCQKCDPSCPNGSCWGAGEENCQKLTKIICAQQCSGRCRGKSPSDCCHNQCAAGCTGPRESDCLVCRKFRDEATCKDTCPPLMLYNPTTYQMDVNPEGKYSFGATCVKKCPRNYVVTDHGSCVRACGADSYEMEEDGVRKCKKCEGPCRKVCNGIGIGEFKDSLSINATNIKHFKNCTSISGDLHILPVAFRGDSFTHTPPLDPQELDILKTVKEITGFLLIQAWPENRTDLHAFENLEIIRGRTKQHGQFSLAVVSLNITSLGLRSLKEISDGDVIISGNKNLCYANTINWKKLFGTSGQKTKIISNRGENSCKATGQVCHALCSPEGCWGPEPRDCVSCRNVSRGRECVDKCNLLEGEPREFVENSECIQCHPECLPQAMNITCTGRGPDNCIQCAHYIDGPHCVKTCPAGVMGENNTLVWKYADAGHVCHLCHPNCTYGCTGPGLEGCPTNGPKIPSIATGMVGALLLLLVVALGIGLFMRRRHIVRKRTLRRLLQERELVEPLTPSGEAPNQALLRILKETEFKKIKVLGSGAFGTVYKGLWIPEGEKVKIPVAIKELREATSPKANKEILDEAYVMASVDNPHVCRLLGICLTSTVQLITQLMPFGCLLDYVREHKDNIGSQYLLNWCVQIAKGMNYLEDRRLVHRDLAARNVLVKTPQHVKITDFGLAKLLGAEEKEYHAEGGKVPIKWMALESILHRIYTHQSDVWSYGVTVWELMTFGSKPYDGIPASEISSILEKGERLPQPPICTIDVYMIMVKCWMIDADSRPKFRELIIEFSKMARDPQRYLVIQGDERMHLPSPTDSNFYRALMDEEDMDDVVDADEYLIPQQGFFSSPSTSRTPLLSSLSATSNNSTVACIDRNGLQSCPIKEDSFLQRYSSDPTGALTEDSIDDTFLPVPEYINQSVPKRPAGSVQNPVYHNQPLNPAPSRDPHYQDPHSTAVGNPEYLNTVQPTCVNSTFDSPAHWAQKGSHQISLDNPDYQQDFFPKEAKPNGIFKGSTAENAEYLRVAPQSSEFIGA
Put plainly: Detection of phosphorylated EGFR (pEGFR) by AlphaLISA in EGF-stimulated A431 cells. Format: cell-based. The note with it: A431 cells (10% FBS), 4 hours incubation, EGF 30 ng/mL for 10 minutes. The method in brief: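 pEGFR was quantified by AlphaLISA in lysates of A431 cells (10% FBS) given a 10 min pulse of EGF at 30 ng/mL after 4 h compound exposure at 37 °C. IC50 came from a four-parameter fit of % inhibition between DMSO and staurosporine controls.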

Experiment [2] concerns the target T2, phosphorylated ERBB2 (pERBB2) (Homo sapiens, UniProt P04626).
T2 construct: endogenous in cells; host or cells: BT-474
Briefly: Detection of phosphorylated ERBB2 (pERBB2) by ELISA in BT-474 cells. It is filed as cell-based. The settings on record: four hour incubation. The method in brief:
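BT-474 cells were treated with compounds (fourfold dilutions, 10 μM to 0.01 nM final) for 4 h at 37 °C, then lysed. pERBB2 in lysates was quantified by ELISA with an HRP anti-phosphotyrosine detection antibody and TMB read at 450 nm; % relative activity was normalized to no-cell and 0.1% DMSO controls.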
On the technique in general: An ELISA detects its analyte on a solid surface through an enzyme-linked reagent.

T2 sequence (P04626 23-1255): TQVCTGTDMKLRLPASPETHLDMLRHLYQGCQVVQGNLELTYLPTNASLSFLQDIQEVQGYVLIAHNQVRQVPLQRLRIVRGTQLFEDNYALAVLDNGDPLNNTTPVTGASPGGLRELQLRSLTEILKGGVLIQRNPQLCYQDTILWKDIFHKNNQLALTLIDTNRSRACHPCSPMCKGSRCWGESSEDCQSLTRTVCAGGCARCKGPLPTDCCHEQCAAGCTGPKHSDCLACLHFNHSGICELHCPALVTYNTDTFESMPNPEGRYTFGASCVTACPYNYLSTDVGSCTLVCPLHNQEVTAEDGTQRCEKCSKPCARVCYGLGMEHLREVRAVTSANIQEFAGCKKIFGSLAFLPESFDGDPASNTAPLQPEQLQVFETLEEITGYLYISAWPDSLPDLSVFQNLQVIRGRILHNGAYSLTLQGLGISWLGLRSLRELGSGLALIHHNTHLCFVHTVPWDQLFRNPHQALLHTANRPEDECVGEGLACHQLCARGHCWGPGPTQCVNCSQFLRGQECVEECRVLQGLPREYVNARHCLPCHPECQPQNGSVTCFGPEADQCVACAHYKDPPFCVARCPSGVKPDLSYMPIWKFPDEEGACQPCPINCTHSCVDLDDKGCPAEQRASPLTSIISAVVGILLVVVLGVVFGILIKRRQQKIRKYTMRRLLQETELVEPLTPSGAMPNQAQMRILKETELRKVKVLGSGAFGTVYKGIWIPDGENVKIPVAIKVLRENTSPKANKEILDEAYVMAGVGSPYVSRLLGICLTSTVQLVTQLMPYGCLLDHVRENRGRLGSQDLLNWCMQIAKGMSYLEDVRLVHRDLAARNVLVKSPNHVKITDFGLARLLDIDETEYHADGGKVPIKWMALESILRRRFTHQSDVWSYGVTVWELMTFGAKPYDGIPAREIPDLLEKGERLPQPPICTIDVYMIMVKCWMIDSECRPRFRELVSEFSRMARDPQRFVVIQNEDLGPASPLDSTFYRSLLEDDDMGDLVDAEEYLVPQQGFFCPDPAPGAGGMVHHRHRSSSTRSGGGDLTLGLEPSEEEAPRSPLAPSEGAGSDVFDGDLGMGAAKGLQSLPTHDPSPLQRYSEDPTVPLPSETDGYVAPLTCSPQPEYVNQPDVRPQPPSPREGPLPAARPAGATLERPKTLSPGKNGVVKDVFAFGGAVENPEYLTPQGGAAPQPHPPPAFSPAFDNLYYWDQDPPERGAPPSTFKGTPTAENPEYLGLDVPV
Chain of Ba/F3 ERBB2 YVMA (P04626 with tags, fused parts or gaps DUP772-775): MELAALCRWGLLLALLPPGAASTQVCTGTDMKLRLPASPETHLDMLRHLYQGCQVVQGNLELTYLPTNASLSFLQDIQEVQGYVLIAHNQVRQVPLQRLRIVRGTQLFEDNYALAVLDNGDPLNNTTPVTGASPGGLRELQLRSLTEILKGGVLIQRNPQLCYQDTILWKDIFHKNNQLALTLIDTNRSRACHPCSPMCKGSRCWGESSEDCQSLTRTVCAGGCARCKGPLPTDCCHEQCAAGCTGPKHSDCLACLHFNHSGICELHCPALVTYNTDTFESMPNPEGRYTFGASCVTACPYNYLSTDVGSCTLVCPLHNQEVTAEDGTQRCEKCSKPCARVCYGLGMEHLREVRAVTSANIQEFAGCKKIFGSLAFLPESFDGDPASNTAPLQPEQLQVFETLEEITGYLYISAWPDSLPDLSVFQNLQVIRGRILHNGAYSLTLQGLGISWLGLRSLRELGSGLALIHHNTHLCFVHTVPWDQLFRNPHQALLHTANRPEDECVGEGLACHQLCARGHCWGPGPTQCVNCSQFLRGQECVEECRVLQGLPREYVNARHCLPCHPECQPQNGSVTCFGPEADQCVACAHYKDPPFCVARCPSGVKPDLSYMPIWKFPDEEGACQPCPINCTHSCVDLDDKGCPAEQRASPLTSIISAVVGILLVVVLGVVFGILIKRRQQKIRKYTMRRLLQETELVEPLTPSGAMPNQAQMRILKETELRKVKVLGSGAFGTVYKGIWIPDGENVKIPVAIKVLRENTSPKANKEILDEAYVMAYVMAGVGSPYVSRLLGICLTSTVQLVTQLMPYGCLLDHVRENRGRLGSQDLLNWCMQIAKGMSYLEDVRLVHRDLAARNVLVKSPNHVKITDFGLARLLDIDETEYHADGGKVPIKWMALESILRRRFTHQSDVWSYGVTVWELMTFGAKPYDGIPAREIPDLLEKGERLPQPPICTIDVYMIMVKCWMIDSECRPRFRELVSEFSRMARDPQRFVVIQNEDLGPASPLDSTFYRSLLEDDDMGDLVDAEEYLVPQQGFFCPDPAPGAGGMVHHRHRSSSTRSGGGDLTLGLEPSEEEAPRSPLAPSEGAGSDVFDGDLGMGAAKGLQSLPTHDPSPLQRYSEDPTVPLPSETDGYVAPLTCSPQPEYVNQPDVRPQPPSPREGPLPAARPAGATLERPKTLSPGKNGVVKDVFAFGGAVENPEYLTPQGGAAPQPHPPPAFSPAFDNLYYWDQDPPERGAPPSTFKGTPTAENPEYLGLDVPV

Broadly, the IC50 is the concentration that gives 50% inhibition. With `Cc1cc(Nc2ncnc3ccc4c(c23)O[C@@H]2CCN(C)C[C@H]2N4C)ccc1Oc1ccc2c(c1)ncn2C` (relative stereo) [Compound 124, trans-7,9-dimethyl-N-(3-methyl-4-((1-methyl-1H-benzo[d]imidazol-5-yl)oxy)phenyl)-7a,8,9,10,11,11a-hexahydro-7H-pyrido[3′,4′:5,6][1,4]oxazino[2,3-f]quinazolin-1-amine], on Ba/F3 ERBB2 YVMA, the GI50 stood at 93.7 nM. Also, the IC50 in experiment [1] is greater than 10000 nM; in experiment [2], 63 nM.
Regarding `Cc1cc(Nc2ncnc3ccc4c(c23)O[C@H]2CCN(C)C[C@@H]2N4)ccc1Oc1ccc2c(c1)ncn2C` (relative stereo) [Compound 126, trans-9-methyl-N-(3-methyl-4-((1-methyl-1H-benzo[d]imidazol-5-yl)oxy)phenyl)-7a,8,9,10,11,11a-hexahydro-7H-pyrido[3′,4′:5,6][1,4]oxazino[2,3-f]quinazolin-1-amine], at Ba/F3 ERBB2 YVMA, the GI50 came out at 140 nM. Moreover, the IC50 is greater than 10000 nM in experiment [1] and 62.1 nM in experiment [2].
For `C=CC(=O)N1CCN2c3nc4c(Nc5ccc(Oc6ccn7ncnc7c6)c(C)c5)ncnc4cc3OC[C@@H]2C1` [Compound 1, (S)-1-(11-((4-([1,2,4]triazolo[1,5-a]pyridin-7-yloxy)-3-methylphenyl)amino)-1,2,4a,5-tetrahydropyrazino[1,2-d]pyrimido[4′,5′:5,6]pyrido[3,2-b][1,4]oxazin-3(4H)-yl)prop-2-en-1-one] the same measures were 1.6 nM, 84.7 nM and 5.77 nM.
For `C=CC(=O)N1CCN2c3nc4c(Nc5ccc(Oc6ccn7ncnc7c6)c(C)c5)ncnc4cc3OC[C@H]2C1` [Compound 2, (R)-1-(11-((4-([1,2,4]triazolo[1,5-a]pyridin-7-yloxy)-3-methylphenyl)amino)-1,2,4a,5-tetrahydropyrazino[1,2-d]pyrimido[4′,5′:5,6]pyrido[3,2-b][1,4]oxazin-3(4H)-yl)prop-2-en-1-one] the same measures were 4.54 nM, 421 nM and 8.97 nM.
In the same order, the values of `C=CC(=O)N1CCN2c3cc4c(Nc5ccc(Oc6ccn7ncnc7c6)c(C)c5)ncnc4cc3OC[C@@H]2C1` [Compound 3, (S)-1-(11-((4-([1,2,4]triazolo[1,5-a]pyridin-7-yloxy)-3-methylphenyl)amino)-1,2,4a,5-tetrahydropyrazino[1′,2′:4,5][1,4]oxazino[3,2-g]quinazolin-3(4H)-yl)prop-2-en-1-one] are 10.4 nM, 212 nM and 12.8 nM.
Consider `C=CC(=O)N1CCN2c3cc4c(Nc5ccc(Oc6ccn7ncnc7c6)c(C)c5)ncnc4cc3OC[C@H]2C1` [Compound 4, (R)-1-(11-((4-([1,2,4]triazolo[1,5-a]pyridin-7-yloxy)-3-methylphenyl)amino)-1,2,4a,5-tetrahydropyrazino[1′,2′:4,5][1,4]oxazino[3,2-g]quinazolin-3(4H)-yl)prop-2-en-1-one], for which, on Ba/F3 ERBB2 YVMA, the GI50 was 62.4 nM. Besides, the IC50 in experiment [1] is 1330 nM; in experiment [2] it was 14.1 nM.
For `C=CC(=O)N1CCN2c3ccc4ncnc(Nc5ccc(Oc6ccn7ncnc7c6)c(C)c5)c4c3OC[C@@H]2C1` [Compound 5, (S)-1-(4-((4-([1,2,4]triazolo[1,5-a]pyridin-7-yloxy)-3-methylphenyl)amino)-6a,7,9,10-tetrahydropyrazino[1′,2′:4,5][1,4]oxazino[2,3-f]quinazolin-8(6H)-yl)prop-2-en-1-one] the same measures were 4.62 nM, 517 nM and 7.89 nM.
Take `C=CC(=O)N1CCN2c3ccc4ncnc(Nc5ccc(Oc6ccn7ncnc7c6)c(C)c5)c4c3OC[C@H]2C1` [Compound 6, (R)-1-(4-((4-([1,2,4]triazolo[1,5-a]pyridin-7-yloxy)-3-methylphenyl)amino)-6a,7,9,10-tetrahydropyrazino[1′,2′:4,5][1,4]oxazino[2,3-f]quinazolin-8(6H)-yl)prop-2-en-1-one]: the GI50 at Ba/F3 ERBB2 YVMA turned out to be 6.23 nM. Besides, the IC50 in experiment [1] came to 540 nM; in experiment [2], 7.19 nM.
For `C=CC(=O)N1CCN2c3cc4c(Nc5ccc(Oc6ccc7c(c6)ncn7C)c(C)c5)ncnc4cc3OC[C@H]2C1` [Compound 7, (R)-1-(11-((3-methyl-4-((1-methyl-1H-benzo[d]imidazol-5-yl)oxy)phenyl)amino)-1,2,4a,5-tetrahydropyrazino[1′,2′:4,5][1,4]oxazino[3,2-g]quinazolin-3(4H)-yl)prop-2-en-1-one] the same measures were 112 nM, 1780 nM and 30.7 nM.
For `C=CC(=O)N1CCN2c3nc4c(Nc5ccc(Oc6ccc7c(c6)ncn7C)c(C)c5)ncnc4cc3OC[C@H]2C1` [Compound 8, (R)-1-(11-((3-methyl-4-((1-methyl-1H-benzo[d]imidazol-5-yl)oxy)phenyl)amino)-1,2,4a,5-tetrahydropyrazino[1,2-d]pyrimido[4′,5′:5,6]pyrido[3,2-b][1,4]oxazin-3(4H)-yl)prop-2-en-1-one] the same measures were 13.3 nM, 643 nM and 18.1 nM.
In the same order, the values of `Cc1cc(Nc2ncnc3cc4c(cc23)N2CCN(C(=O)/C=C/CN(C)C)C[C@H]2CO4)ccc1Oc1ccn2ncnc2c1` [Compound 9, (S,E)-1-(11-((4-([1,2,4]triazolo[1,5-a]pyridin-7-yloxy)-3-methylphenyl)amino)-1,2,4a,5-tetrahydropyrazino[1′,2′:4,5][1,4]oxazino[3,2-g]quinazolin-3(4H)-yl)-4-(dimethylamino)but-2-en-1-one] are 41.2 nM, 1680 nM and 36.1 nM.
`Cc1cc(Nc2ncnc3cc4c(cc23)N2CCN(C(=O)/C=C/CN(C)C)C[C@@H]2CO4)ccc1Oc1ccn2ncnc2c1` [Compound 10, (R,E)-1-(11-((4-([1,2,4]triazolo[1,5-a]pyridin-7-yloxy)-3-methylphenyl)amino)-1,2,4a,5-tetrahydropyrazino[1′,2′:4,5][1,4]oxazino[3,2-g]quinazolin-3(4H)-yl)-4-(dimethylamino)but-2-en-1-one]: the GI50 on Ba/F3 ERBB2 YVMA is 84.9 nM. Also, the IC50 is 3280 nM in experiment [1] and 32.7 nM in experiment [2].
`COCCN1CCN2c3ccc4ncnc(Nc5ccc(Oc6ccn7ncnc7c6)c(C)c5)c4c3OC[C@H]2C1` [Compound 111, (R)—N-(4-([1,2,4]triazolo[1,5-a]pyridin-7-yloxy)-3-methylphenyl)-8-(2-methoxyethyl)-6,6a,7,8,9,10-hexahydropyrazino[1′,2′:4,5][1,4]oxazino[2,3-f]quinazolin-4-amine]: the IC50 in experiment [1] is greater than 10000 nM; in experiment [2], 45.7 nM.
As for `Cc1cc(Nc2ncnc3ccc4c(c23)O[C@@H]2CCN(C)C[C@@H]2N4C)ccc1Oc1ccc2c(c1)ncn2C` [Compound 123, (7aS,11aR)-7,9-dimethyl-N-(3-methyl-4-((1-methyl-1H-benzo[d]imidazol-5-yl)oxy)phenyl)-7a,8,9,10,11,11a-hexahydro-7H-pyrido[3′,4′:5,6][1,4]oxazino[2,3-f]quinazolin-1-amine], the GI50 at Ba/F3 ERBB2 YVMA amounted to 46.4 nM. The compound further displayed an IC50 in experiment [1] greater than 10000 nM.
For the compound `Cc1cc(Nc2ncnc3ccc4c(c23)O[C@@H]2CCN(C)C[C@@H]2N4C)ccc1Oc1ccc2c(c1)ncn2C` [Compound 129, (7aS,11aR)-7,9-dimethyl-N-(3-methyl-4-((1-methyl-1H-benzo[d]imidazol-5-yl)oxy)phenyl)-7a,8,9,10,11,11a-hexahydro-7H-pyrido[3′,4′:5,6][1,4]oxazino[2,3-f]quinazolin-1-amine], at Ba/F3 ERBB2 YVMA, the GI50 stood at 111 nM. The compound further returned an IC50 in experiment [1] greater than 10000 nM.

These data come from patent US20260078135A1, “POLYCYCLIC QUINAZOLINES FOR INHIBITION OF ERBB2” (Enliven Inc., priority 2022, published 2026).
